Source: US20110288042A1, “STABLE HIGHLY PURE AZACITIDINE AND PREPARATION METHODS THEREFOR” (CHEMAGIS LTD., priority 2007, published 2011)

Columns and labels:
[1] = Induced degradation of 5-azacytidine in liquid state (HPLC); format: physicochemical
Description: (§1) The HPLC measurements were performed using a system equipped with an Inertsil C18 column (ODS-2, 5 microns, 250×4.6 mm (ODS-167)). Other parameters of the system were as follows: • Detection: UV detector operated on 242 nm • Column temperature: 20° C. • Run time: 45 minutes • Injection volume: 10 μl • Flow rate: 1.0 ml/minute • Sample set temperature: 5° C. • Sample concentration: about 1.65 mg/ml • Diluent: Mixture of 30% 10 mM ammonium acetate and 70% THF
(§2) Analyses were performed using the following mobile phase • Mobile Phase (Eluent) A: 10 mM ammonium acetate • Mobile Phase (Eluent) B: 60% 10 mM ammonium acetate, 40% MeOH
Acidic hydrolysis—blank preparation: Hydrochloric acid (5 ml, 0.01M HCl) was diluted to 10 ml with the diluent. […] An aliquot (5 ml) was diluted to 10 ml with the diluent. The blank preparation and sample preparation were injected to the HPLC system by using the chromatographic conditions as mentioned in example 8. • Basic hydrolysis—blank preparation: Sodium hydroxide (5 ml, 0.01M NaOH) was diluted to 10 ml with the diluent. […] An aliquot (5 ml) was diluted to 10 ml with diluent. […] An aliquot (5 ml) was diluted to 10 ml with the diluent. The blank and sample preparations were injected to the HPLC system using the chromatographic conditions as detailed in example 8. • Photolysis—blank preparation: The diluent (50 ml) was mixed under UV light for 48 hours. […] The blank preparation and sample preparation were injected to the HPLC system using the chromatographic conditions as mentioned in example 8.

[2] = Solution stability of 5-azacytidine in the HPLC diluent; format: physicochemical; settings: HPLC diluent, about 1.65 mg/ml
Description: as §1, §2

[3] = Acidic: 0.01M HCl, room temperature, about 1 hour
[4] = Basic: 0.01M NaOH, room temperature, about 1 hour
[5] = Oxidation: 10% hydrogen peroxide solution, room temperature, about 1 hour
[6] = Photolysis: in the diluent, UV light 48 hours

For `Nc1ncn([C@@H]2O[C@H](CO)[C@@H](O)[C@H]2O)c(=O)n1` [5-azacytidine, 4-amino-1-β-D-ribofuranosyl-1,3,5-s-triazine-2(1H)-one], the “Area (%) at RRT 1.00 (5-azacytidine)” value [1, 3] was 71.96%, the “Area (%) of peak at RRT 0.33” value [1, 3] was 0.17% and the “Area (%) of peak at RRT 0.63” value [1, 3] was 21.1%. The “Area (%) of peak at RRT 1.18” value [1, 3] was 5.35%, the “Area (%) of peak at RRT 1.65” value [1, 3] was 0.14% and the “Area (%) of peak at RRT 2.01” value [1, 3] was 1.10%. The “Total impurities (%)” value [1, 3] was 28.04%, the “Area (%) at RRT 1.00 (5-azacytidine)” value [1, 4] was 3.38% and the “Area (%) of peak at RRT 0.33” value [1, 4] was 89.92%. For the same compound, the “Area (%) of peak at RRT 0.42” value [1, 4] was 3.97%, the “Total impurities (%)” value [1, 4] was 96.62% and the “Area (%) at RRT 1.00 (5-azacytidine)” value [1, 5] was 97.18%. The “Area (%) of peak at RRT 0.33” value [1, 5] was 0.84%, the “Area (%) of peak at RRT 0.42” value [1, 5] was 0.06% and the “Area (%) of peak at RRT 0.63” value [1, 5] was 0.23%. The “Area (%) of peak at RRT 2.01” value [1, 5] was 1.62%, the “Total impurities (%)” value [1, 5] was 2.82% and the “Area (%) at RRT 1.00 (5-azacytidine)” value [1, 6] was 61.64%. The “Area (%) of peak at RRT 0.33” value [1, 6] was 0.85%, the “Area (%) of peak at RRT 0.39” value [1, 6] was 0.11% and the “Area (%) of peak at RRT 0.42” value [1, 6] was 0.20%. The “Area (%) of peak at RRT 0.63” value [1, 6] was 35.24%, the “Area (%) of peak at RRT 1.18” value [1, 6] was 0.46% and the “Area (%) of peak at RRT 1.65” value [1, 6] was 0.39%. For the same compound, the “Area (%) of peak at RRT 2.01” value [1, 6] was 0.86%, the “Area (%) of peak at RRT 2.05” value [1, 6] was 0.17% and the “Total impurities (%)” value [1, 6] was 38.36%. The “Area (%) at RRT 1.00 (5-azacytidine)” value ([1]; Storage (reference sample)) was 96.72%, the “Area (%) of peak at RRT 0.63” value ([1]; Storage (reference sample)) was 1.55% and the “Area (%) of peak at RRT 2.01” value ([1]; Storage (reference sample)) was 1.37%. For the same compound, the “Area (%) of peak at RRT 2.05” value ([1]; Storage (reference sample)) was 0.24%, the “Total impurities (%)” value ([1]; Storage (reference sample)) was 3.28% and the “Degradation in liquid state (HPLC analysis)” value ([1]; liquid state, Table 9) was “significant degradation”. The “Area (%) at RRT 1.00 (5-azacytidine)” value ([2]; 0 hours) was 96.72%, the “Area (%) of peak at RRT 0.63” value ([2]; 0 hours) was 1.55% and the “Area (%) of peak at RRT 2.01” value ([2]; 0 hours) was 1.37%. The “Area (%) of peak at RRT 2.05” value ([2]; 0 hours) was 0.24%, the “Total impurities by % area” value ([2]; 0 hours) was 3.28% and the “Area (%) at RRT 1.00 (5-azacytidine)” value ([2]; 4 hours) was 96.21%. The “Area (%) of peak at RRT 0.63” value ([2]; 4 hours) was 2.04%, the “Area (%) of peak at RRT 2.01” value ([2]; 4 hours) was 1.41% and the “Area (%) of peak at RRT 2.05” value ([2]; 4 hours) was 0.24%. For the same compound, the “Total impurities by % area” value ([2]; 4 hours) was 3.79%, the “Area (%) at RRT 1.00 (5-azacytidine)” value ([2]; 5 hours) was 96.11% and the “Area (%) of peak at RRT 0.63” value ([2]; 5 hours) was 2.16%. The “Area (%) of peak at RRT 2.01” value ([2]; 5 hours) was 1.37%, the “Area (%) of peak at RRT 2.05” value ([2]; 5 hours) was 0.24% and the “Total impurities by % area” value ([2]; 5 hours) was 3.89%. For the same compound, the “Area (%) at RRT 1.00 (5-azacytidine)” value ([2]; 6 hours) was 96.00%, the “Area (%) of peak at RRT 0.63” value ([2]; 6 hours) was 2.30% and the “Area (%) of peak at RRT 2.01” value ([2]; 6 hours) was 1.36%. The “Area (%) of peak at RRT 2.05” value ([2]; 6 hours) was 0.24%, the “Total impurities by % area” value ([2]; 6 hours) was 4.00% and the “Area (%) at RRT 1.00 (5-azacytidine)” value ([2]; 7 hours) was 95.85%. The “Area (%) of peak at RRT 0.63” value ([2]; 7 hours) was 2.43%, the “Area (%) of peak at RRT 2.01” value ([2]; 7 hours) was 1.37% and the “Area (%) of peak at RRT 2.05” value ([2]; 7 hours) was 0.23%.
